In series [1] the target is T1, PPARα (Homo sapiens, UniProt Q07869).
T1 construct: expressed in transfected cells; host or cells: Hela cells
T1 sequence (Q07869 1-468): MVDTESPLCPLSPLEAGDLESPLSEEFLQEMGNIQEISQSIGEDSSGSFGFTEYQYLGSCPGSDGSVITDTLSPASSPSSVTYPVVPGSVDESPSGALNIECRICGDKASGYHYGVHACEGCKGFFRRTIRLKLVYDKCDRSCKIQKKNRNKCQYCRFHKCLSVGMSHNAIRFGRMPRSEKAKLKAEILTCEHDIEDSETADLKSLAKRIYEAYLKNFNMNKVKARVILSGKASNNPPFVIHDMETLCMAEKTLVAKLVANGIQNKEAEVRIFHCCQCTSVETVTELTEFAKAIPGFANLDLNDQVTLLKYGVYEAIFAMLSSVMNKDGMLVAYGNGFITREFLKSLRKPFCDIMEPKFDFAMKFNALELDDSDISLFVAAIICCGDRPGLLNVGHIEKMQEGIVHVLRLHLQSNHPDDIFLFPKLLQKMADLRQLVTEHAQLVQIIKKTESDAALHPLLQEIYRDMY
Description: Hela cell/luciferase reporter gene method, PPARα agonist activity. It counts as cell-based. The note with it: for EC50: Hela cells, pPPRE3-TK-Luciferase reporter, 24 hrs incubation, read-out: agonistic activity on PPAα (EC50); for ratio of PPARγ/PPARα activated (EC50 ratio): under the experimental conditions of the present disclosure. As to the method:
This example measures the biological activity of a PPAR agonist using the Hela cell/luciferase reporter gene method.
The target plasmids PCMV PPARα (Ampicillin+), PCMV PPARγ (Ampicillin+), PCMV PPARδ (Ampicillin+), and pPPRE3-TK-Luciferase (Ampicillin+) were introduced into DH5a competent cells by heat shock treatment, respectively. After being incubated for 1 hour at 37° C. with shaking (180 rpm), the cells were inoculated on LB agar solid medium containing antibiotic Ampicillin, and invertedly cultured at 37° C. for 12-16 hours. Then the monoclonal colony cultured on the medium was taken and inoculated into LB liquid medium for expanded culture. The desired plasmid was extracted from the resulting bacterial solution with a Plasmid Midi Kit (Qiagen; #12143). The plasmid obtained by centrifugation was suspended in TE buffer, and the plasmid concentration was measured and the mixture was stored at −20° C. Hela cells in the exponential phase were seeded in 6-well plates (8-10^5 cells/well), and after 6-8 hours of culture, the cells were transfected using Lipofectamine® 3000 Transfection Reagent (Invitrogen; #L3000015). A plasmid containing a PPAR binding site (peroxisome proliferator response element, PPRE) and a firefly luciferase gene (pPPRE3-TK-Luciferase) and PPAR expression vector were co-transfected into a Hela cell with a total amount of plasmid DNA of 2.5 ug (the mass ratio of each PPAR expression vector is pPPRE:PPARα=6:1, pPPRE:PPARδ=8:1, and pPPRE:PPARγ=2:1) to construct a drug screening cell model for PPAR agonists. PPAR was binded to the ligand and then binded to the peroxisome proliferator response element (PPRE), thereby initiating downstream firefly luciferase expression and its expression intensity was directly proportional to the degree of PPAR activation. The cells after 24 hours transfection were prepared into a cell suspension with a cell concentration of […] by a complete culture solution, and seeded into a 96-well plate with 100 ul per well. After overnight culture, the medium was changed to a medium containing 1% FBS. 10 mM candidate compound stock (1000×) were 4-fold diluted in DMSO for 8 points, then supplemented with medium containing 1% FBS to a final concentration of 50 uM (5×) by addition of 25 μl of 5× compound diluent to each well in different concentration gradients and incubated under 37° C., 5% CO2 incubator for 24 hrs. The 96-well plate was taken out and 30 μl of Bright-Glo™ Luciferase Assay System (Promega #E2620) was added to each well. The Luciferase luminescence intensity was measured by a SynergyH1 full-function microplate detector. The obtained data was used to calculate EC50 using GraphPad Prism 5.0 software to determine the biological activity of the compound.
The agonistic activity of the compounds synthesized in Examples 1-41 on PPAR is represented by EC50 (see Table 1). EC50 refers to the drug concentration at which the compound has a 50% increase in the agonistic activity of the measured PPAR. The compound numbers in Table 1 correspond to the compound numbers in Examples 1-41.

The nature of series [2]: Pharmacokinetic (PK) experiments after intragastric administration in rats. Format: in vivo, SD rats. The note with it: for AUC(0-inf) / AUC(0-t) / Cmax / Tmax / half-life: male, SD, rat, plasma, po, intragastric administration 20 mg/kg; for half-life: read-out: Terminal T1/2 (converted). The procedure:
Male SD rats, weighing 250-300 grams, were fasted overnight before testing. The test compound was dissolved in 30% sulfobutyl-R-cyclodextrin (SBE-β-CD) and administered intragastrically at a dose of 20 mg/kg. Blood was collected 15 minutes, 30 minutes, and 1, 2, 3, 4, […] and 24 hours after the administration. About 0.3 ml of blood was collected at each time point, placed in a centrifuge tube containing K2-EDTA (dipotassium ethylenediamine tetraacetate) and centrifuged (2,000 g, 10 minutes, 4° C.) to take the plasma, which was stored in an ultra-low temperature refrigerator at −80° C. A 50 μL plasma sample was mixed with 5 μl of internal standard (IS) and extracted with ethyl acetate. The residue was redissolved in acetonitrile after drying under vacuum. The sample was filtered and injected into an LC-MS/MS for analysis.

The term EC50 denotes the concentration at which the effect is half-maximal. As usually defined, the AUC(0-inf) is total exposure, with the tail of the curve extrapolated. High values mean high exposure, low ones low exposure. For orientation: AUC(0-t) means exposure summed from dosing to a finite time, without extrapolation to infinity. Read a high AUC(0-t) as high exposure. As usually defined, the Cmax is the maximum level reached in the sampled fluid or tissue. For orientation: Tmax means the time from dosing to the highest level. As to `CSc1ccc(C(=O)/C=C/c2cc(C)c(OC(C)(C)C(=O)O)c(C)c2)c2occc12` [Compound 5, (E)-2-(2,6-dimethyl-4-(3-(4-(methylthio)benzofuran-7-yl)-3-oxoprop-1-en-1-yl)phenoxy)-2-methylpropanoic acid], the EC50 in series [1] came to 0.0244 µM. Further, in series [2], the AUC(0-inf) is 3240 ng·h/mL, the AUC(0-t) stood at 3110 ng·h/mL, the concentration peaked (Cmax) at 2850 ng/mL and the Tmax was found to be 0.25 h. Moreover, in series [2], the half-life is 12.3 h, the “absorption after oral administration compared with Elafibranor (in words)” value was “good absorption”, the “blood exposure after oral administration compared with Elafibranor (in words)” value is “highly effective blood exposure” and the “half-life after oral administration compared with Elafibranor (in words)” value (shortened to “half-life … compared with Elafibranor (in words)”) is “significantly prolonged half-life”.
Turning to `CCSc1ccc(C(=O)/C=C/c2cc(C)c(OC(C)(C)C(=O)O)c(C)c2)c2occc12` [Compound 6, (E)-2-(4-(3-(4-(ethylthio)benzofuran-7-yl)-3-oxoprop-1-en-1-yl)-2,6-dimethylphenoxy)-2-methylpropanoic acid], the EC50 in series [1] amounted to 0.0096 µM.
The same measure, in the same setting: with `CSc1ccc(C(=O)/C=C/c2cc(C)c(OC(C)(C)C(=O)O)c(C)c2)c2ccoc12` [Compound 27, (E)-2-(2,6-dimethyl-4-(3-(7-(methylthio)benzofuran-4-yl)-3-oxoprop-1-en-1-yl)phenoxy)-2-methylpropanoic acid] the figure was 0.0591 µM.
In the case of `Cc1cc(/C=C/C(=O)c2ccc3c(c2)CCS3)cc(C)c1OC(C)(C)C(=O)O` [Compound 36, (E)-2-(4-(3-(2,3-dihydrobenzo[b]thiophen-5-yl)-3-oxoprop-1-en-1-yl)-2,6-dimethylphenoxy)-2-methylpropanoic acid], the EC50 in series [1] is 0.0751 µM. Also, in series [2], the AUC(0-inf) is 3380 ng·h/mL, the AUC(0-t) turned out to be 3340 ng·h/mL, the Cmax is 2740 ng/mL and the Tmax is 0.38 h. Also, in series [2], the half-life was 6.42 h, the “absorption after oral administration compared with Elafibranor (in words)” value is recorded as “good absorption”, the “blood exposure after oral administration compared with Elafibranor (in words)” value is listed as “highly effective blood exposure” and the “half-life … compared with Elafibranor (in words)” value is recorded as “significantly prolonged half-life”.
For the molecule `COc1ccc2cc(C(=O)/C=C/c3cc(C)c(OC(C)(C)C(=O)O)c(C)c3)oc2c1` [Compound 43, (E)-2-(4-(3-(6-methoxybenzofuran-2-yl)-3-oxoprop-1-en-1-yl)-2,6-dimethylphenoxy)-2-methylpropanoic acid], the EC50 in series [1] was 0.0398 µM. In series [2], the AUC(0-inf) turned out to be 1580 ng·h/mL, the AUC(0-t) was determined as 1550 ng·h/mL, the highest level (Cmax) was 2780 ng/mL and the Tmax stood at 0.25 h. In series [2], the half-life is 6.84 h, the “absorption after oral administration compared with Elafibranor (in words)” value is given as “good absorption”, the “blood exposure after oral administration compared with Elafibranor (in words)” value is reported as “highly effective blood exposure” and the “half-life … compared with Elafibranor (in words)” value was “significantly prolonged half-life”.
Regarding `CSc1ccc2cc(C(=O)/C=C/c3cc(C)c(OC(C)(C)C(=O)O)c(C)c3)oc2c1` [Compound 51, (E)-2-(2,6-dimethyl-4-(3-(6-(methylthio)benzofuran-2-yl)-3-oxoprop-1-en-1-yl)phenoxy)-2-methylpropanoic acid], in series [1], the EC50 came to 0.004 µM, the “increased activity for activation of PPARα compared with Elafibranor” value is 7 fold and the “ratio of PPARγ/PPARα activated (EC50 ratio)” value is recorded as 8.83. Besides, in series [2], the AUC(0-inf) is 479 ng·h/mL, the exposure AUC(0-t) turned out to be 412 ng·h/mL, the highest level (Cmax) was 484 ng/mL and the Tmax is 0.25 h. Further, in series [2], the half-life was 12.3 h, the “absorption after oral administration compared with Elafibranor (in words)” value is listed as “good absorption”, the “blood exposure after oral administration compared with Elafibranor (in words)” value is reported as “highly effective blood exposure” and the “half-life … compared with Elafibranor (in words)” value is on record as “significantly prolonged half-life”.
In the case of `CSc1cccc2oc(C(=O)/C=C/c3cc(C)c(OC(C)(C)C(=O)O)c(C)c3)cc12` [Compound 60, (E)-2-(2,6-dimethyl-4-(3-(4-(methylthio)benzofuran-2-yl)-3-oxoprop-1-en-1-yl)phenoxy)-2-methylpropanoic acid], the EC50 in series [1] turned out to be 0.0467 µM.
Take `CSc1ccc2c(C)c(C(=O)/C=C/c3cc(C)c(OC(C)(C)C(=O)O)c(C)c3)oc2c1` [Compound 62, (E)-2-(2,6-dimethyl-4-(3-(3-methyl-6-(methylthio)benzofuran-2-yl)-3-oxoprop-1-en-1-yl)phenoxy)-2-methylpropanoic acid]: in series [1], the 50% effective concentration (EC50) stood at 0.0166 µM, the “increased activity for activation of PPARα compared with Elafibranor” value was found to be 1 fold and the “ratio of PPARγ/PPARα activated (EC50 ratio)” value turned out to be 7.98. In series [2], the AUC(0-inf) was 3150 ng·h/mL, the AUC(0-t) is 3040 ng·h/mL, the Cmax was 1830 ng/mL and the Tmax was found to be 0.25 h. In addition, in series [2], the half-life is 8.87 h, the “absorption after oral administration compared with Elafibranor (in words)” value is listed as “good absorption”, the “blood exposure after oral administration compared with Elafibranor (in words)” value is recorded as “highly effective blood exposure” and the “half-life … compared with Elafibranor (in words)” value is “significantly prolonged half-life”.
For `CCc1c(C(=O)/C=C/c2cc(C)c(OC(C)(C)C(=O)O)c(C)c2)oc2cc(SC)ccc12` [Compound 63, (E)-2-(4-(3-(3-ethyl-6-(methylthio)benzofuran-2-yl)-3-oxoprop-1-en-1-yl)-2,6-dimethylphenoxy)-2-methylpropanoic acid], the EC50 in series [1] amounted to 0.0192 µM. For the same molecule, in series [2], the AUC(0-inf) is 1720 ng·h/mL, the AUC(0-t) was 1700 ng·h/mL, the highest level (Cmax) was 812 ng/mL and the Tmax turned out to be 0.25 h. In series [2], the half-life was 4.3 h, the “absorption after oral administration compared with Elafibranor (in words)” value is “good absorption”, the “blood exposure after oral administration compared with Elafibranor (in words)” value is listed as “highly effective blood exposure” and the “half-life … compared with Elafibranor (in words)” value is recorded as “significantly prolonged half-life”.
As to `CCSc1ccc2c(C)c(C(=O)/C=C/c3cc(C)c(OC(C)(C)C(=O)O)c(C)c3)oc2c1` [Compound 74, (E)-2-(4-(3-(6-(ethylthio)-3-methylbenzofuran-2-yl)-3-oxoprop-1-en-1-yl)-2,6-dimethylphenoxy)-2-methylpropanoic acid], the EC50 in series [1] worked out at 0.0139 µM.
